Source: PMC5600900 (Journal of medicinal chemistry, 2016)

What follows are compounds tested against WT-CXCL12 (Homo sapiens, UniProt P48061) (assay: 2D 1H-15N SOFAST-HMQC NMR titration, binding to WT-CXCL12). Details: 2D 1H-15N SOFAST-HMQC screen of docking hits.
For CC(C)O.CCCOc1ccc(C(Nc2ccc(F)cc2)P(=O)(O)O)cc1 (stereo not shown) [compound 6], the “binding to WT-CXCL12 (chemical shift perturbations)” value was “induced chemical shift perturbations to residues associated with the I4/I6 binding site”. O=C(O)CC1c2ccccc2CCN1C(=O)Nc1cccc(F)c1 (stereo not shown) [compound 7] was tested, and the “binding to WT-CXCL12 (chemical shift perturbations)” value was “induced chemical shift perturbations to residues associated with the I4/I6 binding site”. In the case of COc1ccc(C2C(C(=O)O)CC(=O)N2Cc2ccsc2)cc1 (stereo not shown) [compound 5], the “binding to WT-CXCL12 (chemical shift perturbations)” value is reported as “bind non-specifically”. In the case of O=C(O)CCn1cc(C(=O)c2ccccc2O)cc1-c1ccncc1 [compound 4], the “binding to WT-CXCL12 (chemical shift perturbations)” value is reported as “bind non-specifically”.
